# Experimental data from patent publication US11986450B2, “Methods and compositions for treating infection and inflammation with selenocyanate” (National Jewish Health, priority 2017, dated 2024).
# Legend:
# DmTrxR (containing Cys) = DmTrxR (containing Cys) (Drosophila melanogaster, UniProt P91938); assay: Inactivation of TrxR by oxidants; type: biochemical
# Procedure: (§1) Based on data, it is expected that Sec-TrxR1 is able to metabolize both HOSCN and HOSeCN but not HOCl, and that Cys-TrxR's is unable to metabolize these oxidants. The active site Cys or Sec residue of each respective enzyme is oxidized to either Cys-SO2^− or Sec-SeO2^−. The Cys-TrxR cannot recover from this oxidation while the Sec-TrxR can. To test this, an inactivation assay is performed followed by structural analysis of the protein by MS. In the inactivation assay, (i) enzymes are reduced with NADPH, (ii) the enzymes are treated with oxidant followed by desalting to remove oxidant, and (iii) the enzyme is assayed for activity. […] The proteins are proteolyzed followed by LC-MS analyses. The LC-MS profiles are compared to control samples not treated with oxidant. This determines the exact mechanism of inactivation for each enzyme. […] This would explain why HOCl is highly inflammatory (nonspecific oxidation), and why HOSCN is used as a bactericide because it can rapidly inactivate proteins/enzyme by oxidation of sulfur amino acids (Cys, Met), but can be metabolized by the host cell by Sec-TrxR.
# [1] = target: Sec-containing TrxR2 (Sec-TrxR2) (Mus musculus, UniProt Q9JLT4); assay: Inactivation of TrxR by oxidants; type: biochemical
# Procedure: as §1
# [2] = target: recombinant E. coli Cys-TrxR (Escherichia coli, UniProt P0A9P4); assay: Kinetic analysis of HOSeCN metabolism; type: biochemical; conditions: similar conditions
# From the text: FIG. 12. Kinetic analysis of HOSeCN metabolism by recombinant mouse Sec-TrxR2 and recombinant E. coli Cys-TrxR.
# [3] = tested on: Burkholderia cepacia complex (BCC); assay: BCC viability (CFU) after SeCN / peroxidase system; type: cell-based; conditions: full peroxidase system, 1 hour, pH 7.4
# Procedure: (§2) Human bronchial epithelial cells (HBE) or Burkholderia cepacia complex (BCC) were treated for 1 hour in PBS (control), SeCN only (grey bars), glucose oxidase only (hatch bar), or full peroxidase system (black bar) at pH 7.4 and then media replaces and viability assessed 24 hours later. HBE cell viability assessed by MTT and bacterial cell viability assessed by colony forming units.
# [4] = tested on: Human bronchial epithelial cells (HBE); assay: HBE cell viability (MTT) after SeCN / peroxidase system; type: cell-based; conditions: 1 hour treatment, viability 24 hours later, even in the presence of GOX
# Procedure: as §2
# (§3) To examine the variability in susceptibility to HOSeCN-mediated killing amongst clinical NTM isolates obtained from CF airways, four NTM strains were exposed to dose curves of LPO and —SeCN (FIGS. 25A and 25B). While some variations were detected in the sensitivity to killing amongst the isolates, bacterial viability was reduced to less than 10% with all isolates when plated on LB agar immediately after reactions were mixed. Importantly, levels of —SeCN able to reduce bacterial viability were not toxic to human epithelial cells, even in the presence of GOX (FIG. 26).
# [5] = Inhaled SeCN in mice, ELF and serum levels by HPLC-EC; type: in vivo, Mice (C57B6); conditions: aerosolized isotonic 0.05% (w/v) solution in PBS for 30 minutes
# Procedure: Mice are exposed to aerosolized isotonic (0.9%) or isotonic ^−SeCN (0.05%) in a Plexiglas nebulizing chamber (see FIG. 32 for data). Isotonicity is maintained by substituting ^−SeCN for NaCl. All stock solutions are freshly prepared and 10 mL are nebulized over the 30 minute exposure using a pulmosonic nebulizer (DeVilbiss). Outcomes include: 1) changes in serum, ELF, lung and BAL cell GSH, ^−SCN and SeCN levels; 2) changes is lung tissue Sec-TrxR levels and activity; 3) changes in oxidative stress with assessments of DNA (8-hydroxy-2-deoxyguanosine, 8OH2dG) and lipid (4-hydroxynonenal, 4HNE) oxidation; 4) changes in lung and blood bacterial CFUs; 5) changes in bronchoalveolar lavage fluid (BALF) protein, IgM and lactate dehydrogenase (LDH) as markers of edema and injury; 6) BAL cell counts and differentials as markers of inflammation; 7) changes in BALF cytokine profile (Mouse pro-inflammatory-7 Ultra sensitive kit, IFNγ, IL-1β, IL-10, IL-12p70, IL-6, KC, TNFα, Meso Scale Discovery) as markers of inflammation; and 8) standard histopathology assessments.
# [6] = tested on: Pseudomonas aeruginosa, Burkholderia cepacia complex, methicillin resistant Staphylococcus aureus; assay: Killing of CF colonizing bacteria by SCN or SeCN with host defense system (LPO+GOX); type: cell-based; conditions: 400 uM with LPO+GOX, 2 hours at room temperature, CFU
# Procedure: Comparisons of HOSeCN on SCN sensitive and resistant strains of (FIGS. 30A & 30B) BCC clinical isolates, (FIGS. 30C & 30D) PA clinical isolates, and (FIG. 30E & FIG. 30F) MRSA clinical isolates. Bacteria were incubated for 2 hour with LPO, ^−SCN or SeCN, glucose and increasing amounts of GOX. The flux (HOX) of either HOSCN or HOSeCN was determined from standard curves of GOX/LPO and either HOSCN or HOSeCN. LC50 values were determined by curve fitting the data with nonlinear regression of log (agonist) vs normalized response.
# [7] = tested on: clinical isolate of M. abscessus; assay: NTM killing, exposure to GOX, LPO, SeCN components; type: cell-based; conditions: plated on LB agar immediately after mixing
# From the text: (§4) FIGS. 24A and 24B show —SeCN-mediated killing of NTM requires LPO, but not GOX, while LPO/—SeCn has no effect upon B. Cepacia. […] All conditions with GOX also contained dextrose, the required substrate of GOX for H2O2 production.
# (§5) Susceptibility of NTM species to both HOSCN- and HOSeCN-mediated killing. […] Given the shorter amount of time necessary for —SeCN-mediated killing of NTM compared to other bacteria species (FIGS. 24A and 24B), the possibility that the mechanism responsible for —SeCN-mediated killing of NTM was unique compared to —SCN-mediated killing of NTM and —SeCN-mediated killing of other species is determined. […] Since killing required LPO, the inventors believe that endogenous H2O2 production by NTM provided the H2O2 required for the generation of HOSeCN via LPO and —SeCN.
# [8] = tested on: Burkholderia cepacian clinical isolate; assay: B. cepacia exposure to LPO and KSeCN; type: cell-based; conditions: 1000 mU/mL LPO, no GOX; 0 hr and 1 hour at 37 C
# From the text: as §4, §5
# M. Abscessus = assay: Killing of NTM clinical isolate with LPO/GOX and SCN or SeCN; type: cell-based; conditions: 1800 mU/mL LPO and 300 mU/mL GOX
# From the text: A HOSCN-sensitive nontuberculous Mycobacteria (NTM) clinical isolate ws exposed to LPO/GOX with either SCn or SeCN.
# as §5
# [9] = tested on: NTM strains (MABSC subspecies abscessus and massiliense); assay: LPO and SeCN dose responses in the killing of NTM; type: cell-based; conditions: four NTM strains, dose curves of LPO and SeCN, plated on LB agar immediately after mixing
# Procedure: FIGS. 25A and 25B show [LPO] and [—SeCN] dose responses in the killing of NTM. […] All samples were plated on LB immediately after mixing. CF0271-0636 and the ATCC strains were MABSC subspecies abscessus and CF0008-6241 was subspecies massiliense.
# as §3
# [10] = tested on: clinical isolate of M. abscessus; assay: SeCN-mediated killing of NTM in different buffer/media; type: cell-based
# Procedure: FIGS. 27A-27C show —SeCN-mediaed killing of NTM requires active growth. A clinical isolate of M. abscessus was incubated in the listed buffer/media containing LPO at 1000 mU/ml and either KCL or SeCN. At the indicated time, samples were plated on LB agar as undiluted or 10× diluted in PBS. […] FIG. 27A in PBS; FIG. 27B in Middlebrook 7H9; FIG. 27C in Lysogeny Broth.
# Given the reduced viability observed with immediate plating of LPO/—SeCN reactions on LB agar while —SCN-mediated killing required prolonged incubation, the possibility that HOSeCN generated on the LB agar was responsible for the loss in viability was determined. […] The inventors believe that the LPO in undiluted samples remained active on the LB agar, and that the HOSeCN-mediated killing of NTM, which was not metabolically active in the PBS buffer, requires active growth of the NTM, which occurs on the LB agar. To test this, the PBS buffer was substituted with either Middlebrook 7H9 media (without catalase) or LB broth (FIGS. 27A, 27B and 27C).
# NTM = assay: Preincubation of NTM with LPO, washing, then SeCN; type: cell-based; conditions: data not shown
# Procedure: The opposite is expected to be true for highly resistant NTMs. Adding exogenous catalase or an H2O2 scavenger is expected to inhibit —SeCN-mediated killing, while inhibiting endogenous catalase activity will increase —SeCN-mediated killing. In addition, LPO activity is expected to be localized to the surface of the bacterium. […] It is expected that very little Burkholderia will be killed when incubated in the presence of NTM/LPO/—SeCN, as the highly reactive HOSeCN species will be consumed by the NTM.
# 16HBE cells = assay: Sec-TrxR inhibition and HOSCN toxicity in lung cells (LDH release); type: cell-based, human; conditions: auranofin 1 hour, then 300 μM HOSCN, viability 24 hours later
# Procedure: FIG. 19. […] 16HBE cells were treated with auranofin at increasing concentrations for 1 hour and then exposed to 300 μM of either HOSCN or HOCl and viability was assessed by lactate dehydrogenase release 24 hours later. Vehicle (Veh).
# Additional studies determine both leukocyte viability and bacterial viability after ^−SCN treatments and under simulated ^−SCN conditions with and without pharmacological inhibition of Sec-TrxR using auranofin and aurothioglucose (Rigobello, M. P., et al. (2008) Gold(I) complexes determine apoptosis with limited oxidative stress in Jurkat T cells. Eur J Pharmacol 582, 26-34). […] These assays have been described to study bacterial killing by neutrophils (Hampton, M. B., and Winterbourn, C. C. (1999) Methods for quantifying phagocytosis and bacterial killing by human neutrophils. J Immunol Methods 232, 15-22). Neutrophil death is assessed by flow cytometry using % of Annexin V (apoptosis marker) and propidium iodide (PI, necrosis marker) positive cells in each gate as shown in FIG. 7.
# [11] = tested on: M. massiliense clinical isolate; assay: Exogenous catalase inhibition of LPO/SeCN killing of NTM; type: cell-based; conditions: high levels of catalase; 1 mM SeCN, 1600 mU/mL LPO
# Procedure: FIG. 29A M. massiliense clinical isolate was incubated with 1 mM SeCN and either 1600 mU/mL LPO alone or with catalase.
# It is well known that NTM species express catalase genes and have the ability to produce H2O2 (Wayne L G, Diaz G A. Detection of a novel catalase in extracts of Mycobacterium avium and Mycobacterium intracellulare. Infection and immunity. 1988; 56(4):936-41.). As H2O2 is a required substrate of LPO and no exogenous source of H2O2 is needed for LPO/—SeCN-mediated killing, it is expected that NTM provides the H2O2 for utilization by LPO to generate HOSeCN. The inventors have performed a set of experiments that provide evidence that endogenously produced H2O2 plays a role in the LPO/—SeCN-mediated killing of NTM. In FIG. 29, exogenous catalase is utilized in an attempt to inhibit the LPO-mediated generation of HOSeCN. At high levels of catalase, 100% of the killing was inhibited. The high levels of catalase required for inhibition may be due to several reasons, including instability of the enzyme on LB agar and the possibility that LPO may be bound to and concentrated on the bacterial surface, as has been previously described for Streptococci (Pruitt K M, et al. Lactoperoxidase binding to streptococci. Infection and immunity. 1979; 25(1):304-9). […]
# [12] = LPO 1000 mU/ml, 0 to 4 hours, diluted 10× before plating
# Chain of Sec-containing TrxR2 (Sec-TrxR2) (Q9JLT4 35-524): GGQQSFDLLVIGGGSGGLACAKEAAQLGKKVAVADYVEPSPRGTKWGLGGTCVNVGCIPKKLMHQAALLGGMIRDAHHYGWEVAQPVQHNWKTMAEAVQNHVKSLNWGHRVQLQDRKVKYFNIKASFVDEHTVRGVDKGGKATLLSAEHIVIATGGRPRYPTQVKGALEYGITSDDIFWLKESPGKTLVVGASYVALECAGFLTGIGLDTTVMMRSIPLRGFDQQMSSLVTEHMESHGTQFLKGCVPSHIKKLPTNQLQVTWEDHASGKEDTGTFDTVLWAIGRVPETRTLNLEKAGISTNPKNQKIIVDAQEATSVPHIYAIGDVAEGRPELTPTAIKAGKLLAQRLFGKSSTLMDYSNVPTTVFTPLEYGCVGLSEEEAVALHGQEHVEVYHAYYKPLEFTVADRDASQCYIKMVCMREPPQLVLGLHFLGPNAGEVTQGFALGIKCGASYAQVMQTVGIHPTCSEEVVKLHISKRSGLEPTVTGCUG
# Chain of DmTrxR (containing Cys) (P91938 112-596 limits assumed): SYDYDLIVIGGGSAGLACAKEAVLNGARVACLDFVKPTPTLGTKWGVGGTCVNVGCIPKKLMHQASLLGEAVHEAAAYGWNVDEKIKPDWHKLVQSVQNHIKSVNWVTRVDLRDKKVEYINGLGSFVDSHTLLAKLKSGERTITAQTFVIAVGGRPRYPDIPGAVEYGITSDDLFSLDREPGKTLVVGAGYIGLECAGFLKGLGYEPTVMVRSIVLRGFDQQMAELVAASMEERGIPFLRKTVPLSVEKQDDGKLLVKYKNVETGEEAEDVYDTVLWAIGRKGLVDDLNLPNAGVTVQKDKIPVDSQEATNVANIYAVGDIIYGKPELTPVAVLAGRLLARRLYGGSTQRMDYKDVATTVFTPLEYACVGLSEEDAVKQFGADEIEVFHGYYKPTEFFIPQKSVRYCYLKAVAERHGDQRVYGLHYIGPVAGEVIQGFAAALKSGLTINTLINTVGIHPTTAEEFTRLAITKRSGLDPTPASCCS
# Chain of recombinant E. coli Cys-TrxR (P0A9P4 whole entry): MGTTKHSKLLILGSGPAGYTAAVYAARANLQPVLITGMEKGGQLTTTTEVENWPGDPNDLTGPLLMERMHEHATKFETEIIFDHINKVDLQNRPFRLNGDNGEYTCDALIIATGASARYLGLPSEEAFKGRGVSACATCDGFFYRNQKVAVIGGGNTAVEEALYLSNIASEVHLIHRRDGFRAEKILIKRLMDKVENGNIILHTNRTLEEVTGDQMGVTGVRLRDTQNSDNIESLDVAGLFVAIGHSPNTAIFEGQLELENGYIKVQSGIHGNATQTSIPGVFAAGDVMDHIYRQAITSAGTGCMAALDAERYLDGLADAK
molecule,measurement,setting,value
"OCl [HOCl, hypochlorite]",Inactivation of DmTrxR by oxidant,DmTrxR (containing Cys),is inactivated
same,Inactivation of Sec-TrxR2 by oxidant,[1],resists inactivation
"N#C[Se]O [HOSeCN, hyposelenocyanite]",HOSeCN metabolism activity,[2],no measurable activity
same,Bacterial cell viability (CFU),[3],killing bacteria
same,Inactivation of DmTrxR by oxidant,DmTrxR (containing Cys),is inactivated
same,Inactivation of Sec-TrxR2 by oxidant,[1],resists inactivation
"N#C[SeH] [SeCN, selenocyanate]",Toxicity to human epithelial cells (HBE viability),[4],not toxic
same,ELF SeCN levels,[5],high ELF SeCN levels
same,Tolerability of inhaled SeCN,[5],well tolerated
same,"Killing of thiocyanate susceptible and resistant bacteria, compared with SCN",[6],as effective or superior
same,"Killing of NTM with LPO, without GOX",[7],only required LPO and —SeCN
same,Effect of LPO and SeCN alone upon B. cepacia,[8],no effect
same,"Killing of M. Abscessus, compared with SCN",M. Abscessus,more efficient than SCN
same,Bacterial viability,[9],less than 10%
same,Bacterial growth in Middlebrook 7H9 media,[10]; [12],prevented bacterial growth
same,Viability in LB broth,[10]; [12],loss of viability
same,Killing in PBS buffer,"[10]; with LPO, samples diluted 10-fold before plating on LB agar",no killing detected
same,Killing of NTM after LPO preincubation and washing,NTM,substantial killing
CC(=O)OC[C@H]1O[C@@H]([S-])[C@H](OC(C)=O)[C@@H](OC(C)=O)[C@@H]1OC(C)=O.CCP(CC)CC.[Au+] [auranofin],Sensitization of lung cells to HOSCN-mediated toxicity,16HBE cells,sensitizes lung cells to HOSCN-mediated toxicity
catalase,Inhibition of LPO/SeCN-mediated killing,[11],100%
